These results are taken from ChEMBL document CHEMBL1146727, “Stereodefined and polyunsaturated inhibitors of histone deacetylase based on (2E,4E)-5-arylpenta-2,4-dienoic acid hydroxyamides” (Bioorg Med Chem Lett, 2004).

Each structure is given as a SMILES string. Bounds are passed on as bounds.

For this test, the target named is Histone deacetylase. The experiment in a line: Inhibition of histone deacetylase (HDAC) activity in HeLa cell nuclear extract. Type of test: cell-based, Homo sapiens.

In the case of `O=C(CCCCc1ccc(Cl)cc1)NO`, the IC50 was found to be 2580 nM. As to `O=C(/C=C/C=C/c1ccccc1)NO`, the IC50 turned out to be 279 nM. On to `CC(CCC(=O)NO)Cc1ccc(NS(=O)(=O)c2ccc(Cl)cc2)cc1` (configuration not stated), for which the IC50 turned out to be 1170 nM.

As to `COc1ccc(S(=O)(=O)Nc2ccc(/C=C/C=C/C(=O)NO)cc2)cc1`, the IC50 was 10400 nM. `CC(/C=C/C(=O)O)=C\c1ccc(NS(=O)(=O)c2ccc(Cl)cc2)cc1` registered an IC50 greater than 100000 nM.

Take `COc1ccc(S(=O)(=O)Nc2ccc(/C=C(C)/C=C/C(=O)NO)cc2)cc1`: the IC50 worked out at 74 nM. Take `CC(/C=C/C(=O)NO)=C\c1ccc(NS(=O)(=O)c2ccc(Cl)cc2)cc1`: the IC50 is recorded as 49 nM.

For the compound `CC(/C=C/C(=O)NO)=C\c1ccc(Cl)cc1`, the IC50 stood at 302 nM.

Consider `O=C(/C=C/C=C/c1ccc(Cl)cc1)NO`, for which the IC50 was 252 nM. For the compound `CC(/C=C/C(=O)NO)=C\c1ccc(N(C)C)cc1`, the IC50 came to 788 nM.

For the compound `CN(C)c1ccc(/C=C/C=C/C(=O)NO)cc1`, the IC50 is 1700 nM.

`CC(/C=C/C(=O)NO)=C\c1ccc(NS(=O)(=O)c2ccccc2)cc1` gave an IC50 of 172 nM.
